Measured values: patent publication US20110172097A1, “Imidazole and Triazole Compounds, Their Use and Agents Containing The Same” (BASF SE, priority 2008, published 2011)

Assays:
Pyricularia oryzae = format: cell-based; details: day 7, 405 nm, active compound-free control = 100%
Septoria tritici = assay: CG1 - Protective activity against Septoria leaf spot of wheat caused by Septoria tritici (greenhouse); format: in vivo, Septoria tritici on wheat seedlings; details: protective spray 24 h before inoculation, assessed after 21 days, % infection of total leaf area, untreated control 90
Experimental: Subsequently, it was made up to 100 ml with water. This stock solution was diluted with the described solvent/emulsifier/water mixture to the active compound concentration indicated below. Alternatively, the active compounds were used as a commercially available ready-to-use solution and diluted with water to the active compound concentration indicated. CG1 Protective Activity Against Septoria Leaf Spot of Wheat Caused by Septoria tritici Leaves of potted wheat seedlings were sprayed to run off point with an aqueous suspension having the active compound concentration stated below. 24 hours after the spray coating had dried on, they were inoculated with an aqueous spore suspension of Septoria tritici. The test plants were then placed in a greenhouse at temperatures between 18 and 22° C. and a relative atmospheric humidity close to 100% for 4 days and then at temperatures between 18 and 22° C. and an atmospheric humidity of about 70%. After 21 days, the extent of the development of the disease was determined visually in % infection of the total leaf area.

Phakopsora pachyrhizi = assay: Example G1 - Curative activity against soybean rust caused by Phakopsora pachyrhizi (greenhouse); format: in vivo, Phakopsora pachyrhizi on soybean seedlings; details: 300 ppm, curative spray 24 h after inoculation, assessed after 14 days, untreated plants 90% infected

Row | Compound | Growth (%) at 31 ppm CM1 (Pyricularia oryzae) | Infection (%) at 600 ppm CG1 (Septoria tritici) | further results
1 | CC(C)(C)C(O)C(CCCCc1ccccc1)n1cncn1 (centres unmarked) [reference compound] | 61% | – | –
2 | CC(C)(C)C(O)C(CCCCc1ccc(Cl)cc1)n1cncn1 (centres unmarked) [reference compound] | – | 40% | –
3 | CC(C)(C)C(O)C(CCCCc1ccc(F)cc1)n1cncn1 (centres unmarked) [I.A5a, 8-(4-fluorophenyl)-2,2-dimethyl-4-[1,2,4]triazol-1-yloctan-3-ol] | – | 10% | –
4 | CC(C)(CCCC(C(O)C(C)(C)C)n1cncn1)c1ccccc1 (centres unmarked) [I.A1a, 2,2,8-trimethyl-8-phenyl-4-[1,2,4]triazol-1-ylnonan-3-ol] | 26% | – | –
5 | CC(C)(CCCC(C(O)C(C)(C)C)n1cncn1)c1ccccc1 (centres unmarked) [I.A1b, 2,2,8-trimethyl-8-phenyl-4-[1,2,4]triazol-1-ylnonan-3-ol] | – | – | extent of the rust fungus development on the leaves in % infection (Phakopsora pachyrhizi): 0%
